Results as given in ChEMBL document CHEMBL4396908, “Sulfamates in drug design and discovery: Pre-clinical and clinical investigations” (Eur J Med Chem, 2019).
One block for each compound: values may come before it.

What was measured:
[1] = tested on: Rattus norvegicus; assay: In vivo inhibition of steroid sulfatase in Wistar rat assessed as enzyme recovery at 10 mg/kg, sc single dose treated for 3 days measured after 1 week relative to control; assay type: functional; set-up: scale not given: the % may be the effect or the level left
[2] = tested on: Rattus norvegicus; assay: In vivo inhibition of steroid sulfatase in Wistar rat assessed as enzyme recovery at 10 mg/kg, sc single dose treated for 10 days measured after 15 days relative to control; assay type: functional; set-up: scale not given: the % may be the effect or the level left
[3] = molecular target: Carbonic anhydrase 9 (Homo sapiens, UniProt Q16790); assay: Inhibition of human carbonic anhydrase 9
[4] = molecular target: T1, Carbonic anhydrase 2 (Homo sapiens, UniProt P00918); assay: Inhibition of human carbonic anhydrase 2
[5] = molecular target: T2, Steryl-sulfatase (Homo sapiens, UniProt P08842); assay: Inhibition of steroid sulfatase in human MCF7 cells; assay type: cell-based
T2 sequence (P08842 whole entry): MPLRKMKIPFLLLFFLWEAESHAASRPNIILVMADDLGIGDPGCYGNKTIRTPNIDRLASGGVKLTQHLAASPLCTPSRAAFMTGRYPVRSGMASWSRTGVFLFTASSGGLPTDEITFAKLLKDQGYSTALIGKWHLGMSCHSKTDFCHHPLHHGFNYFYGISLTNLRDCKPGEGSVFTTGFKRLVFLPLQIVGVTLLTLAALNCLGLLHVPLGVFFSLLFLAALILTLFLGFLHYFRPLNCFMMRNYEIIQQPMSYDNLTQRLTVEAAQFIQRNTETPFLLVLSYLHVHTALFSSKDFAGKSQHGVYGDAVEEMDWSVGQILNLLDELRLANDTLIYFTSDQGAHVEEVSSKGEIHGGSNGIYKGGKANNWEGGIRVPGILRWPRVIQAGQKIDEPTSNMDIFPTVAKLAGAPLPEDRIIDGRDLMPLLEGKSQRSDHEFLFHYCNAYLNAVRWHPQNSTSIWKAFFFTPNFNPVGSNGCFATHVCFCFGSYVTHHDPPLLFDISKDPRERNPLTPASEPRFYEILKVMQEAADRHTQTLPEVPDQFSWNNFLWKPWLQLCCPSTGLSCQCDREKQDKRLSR

[6] = molecular target: T2, Steryl-sulfatase; assay: Inhibition of steroid sulfatase derived form human placental microsomes; set-up: species or system Placenta
[7] = tested on: MDA-MB-231; assay: Antiproliferative activity against estrogen receptor-negative human MDA-MB-231 cells; assay type: functional, cell-based
[8] = tested on: MCF7; assay: Antiproliferative activity against estrogen receptor-positive human MCF7 cells; assay type: functional, cell-based
[9] = tested on: MCF7; assay: Antitumor activity against human MCF7 cells xenografted in MF-1 nude mouse assessed as tumor growth inhibition at 5 mg/kg, po treated for 4 weeks in presence of 2-deoxy-D-glucose by immunohistochemistry relative to control; assay type: functional; details: 672 h, read-out: TGI
[10] = molecular target: T2, Steryl-sulfatase; assay: Inhibition of steroid sulfatase (unknown origin)
[11] = tested on: MCF7; assay: Antiproliferative activity against human MCF7 cells at 1 uM relative to control; assay type: functional
[12] = molecular target: T2, Steryl-sulfatase; assay: Inhibition of human placental steroid sulfatase
[13] = molecular target: Carbonic anhydrase 4 (Homo sapiens, UniProt P22748); assay: Inhibition of human carbonic anhydrase 4
Sequence of Carbonic anhydrase 4 (P22748 whole entry): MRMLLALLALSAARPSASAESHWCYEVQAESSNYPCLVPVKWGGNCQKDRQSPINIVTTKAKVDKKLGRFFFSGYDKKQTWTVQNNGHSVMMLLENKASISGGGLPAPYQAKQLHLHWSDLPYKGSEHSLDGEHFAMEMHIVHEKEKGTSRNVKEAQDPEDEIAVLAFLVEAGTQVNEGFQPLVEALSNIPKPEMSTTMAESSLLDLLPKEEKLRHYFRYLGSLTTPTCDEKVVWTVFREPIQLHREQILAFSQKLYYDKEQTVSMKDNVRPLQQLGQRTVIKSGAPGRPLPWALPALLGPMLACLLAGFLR

[14] = species on record: Homo sapiens; assay: Selectivity ratio of IC50 for human carbonic anhydrase 1 to IC50 for human carbonic anhydrase 9
[15] = tested on: MCF7; assay: Antiproliferative activity against human MCF7 cells; assay type: functional, cell-based
[16] = tested on: MDA-MB-231; assay: Antiproliferative activity against human MDA-MB-231 cells; assay type: functional, cell-based
[17] = molecular target: T2, Steryl-sulfatase; assay: Inhibition of human placental steroid sulfatase expressed in HEK293 cells using [3H] E1S as substrate after 2 hrs by liquid scintillation counting method; assay type: cell-based
[18] = tested on: Rattus norvegicus; assay: In vivo inhibition of steroid sulfatase in Wistar rat at 10 mg/kg, po relative to control; assay type: functional
[19] = molecular target: Carbonic anhydrase 1 (Homo sapiens, UniProt P00915); assay: Inhibition of human carbonic anhydrase 1 using p-nitrophenylacetate as substrate after 3 mins
Sequence of Carbonic anhydrase 1 (P00915 whole entry): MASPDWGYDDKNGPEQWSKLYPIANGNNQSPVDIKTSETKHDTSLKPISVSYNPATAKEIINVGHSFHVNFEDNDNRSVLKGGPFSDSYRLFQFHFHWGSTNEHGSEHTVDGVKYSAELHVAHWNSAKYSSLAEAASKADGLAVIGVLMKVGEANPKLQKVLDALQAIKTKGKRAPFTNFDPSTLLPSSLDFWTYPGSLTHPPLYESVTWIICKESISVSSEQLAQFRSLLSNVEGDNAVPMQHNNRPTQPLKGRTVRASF

[20] = molecular target: Cholinesterase (Equus caballus, UniProt P81908); assay: Inhibition of equine BChE using butyrylthiocholine iodide as substrate preincubated for 15 mins followed by substrate addition by Ellman's method
Sequence of Cholinesterase (P81908 whole entry): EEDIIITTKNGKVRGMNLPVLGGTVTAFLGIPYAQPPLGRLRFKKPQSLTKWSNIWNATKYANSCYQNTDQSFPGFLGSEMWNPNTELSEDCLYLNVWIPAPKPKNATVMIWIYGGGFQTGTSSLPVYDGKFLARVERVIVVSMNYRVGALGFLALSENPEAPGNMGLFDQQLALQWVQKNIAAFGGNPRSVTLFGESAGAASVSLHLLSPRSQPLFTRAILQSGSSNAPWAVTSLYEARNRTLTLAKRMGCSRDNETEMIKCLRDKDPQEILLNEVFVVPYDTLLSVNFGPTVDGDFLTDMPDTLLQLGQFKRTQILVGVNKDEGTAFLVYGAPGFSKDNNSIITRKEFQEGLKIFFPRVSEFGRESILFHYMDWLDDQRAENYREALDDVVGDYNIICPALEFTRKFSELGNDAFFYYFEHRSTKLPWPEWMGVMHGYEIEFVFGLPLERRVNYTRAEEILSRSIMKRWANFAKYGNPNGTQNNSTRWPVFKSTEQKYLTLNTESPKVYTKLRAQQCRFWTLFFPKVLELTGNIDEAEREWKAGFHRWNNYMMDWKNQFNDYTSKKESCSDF

[21] = molecular target: Acetylcholinesterase (Electrophorus electricus, UniProt O42275); assay: Inhibition of electric ee AChE using acetylthiocholine iodide as substrate preincubated for 15 mins followed by substrate addition by Ellman's method
Sequence of Acetylcholinesterase (O42275 whole entry): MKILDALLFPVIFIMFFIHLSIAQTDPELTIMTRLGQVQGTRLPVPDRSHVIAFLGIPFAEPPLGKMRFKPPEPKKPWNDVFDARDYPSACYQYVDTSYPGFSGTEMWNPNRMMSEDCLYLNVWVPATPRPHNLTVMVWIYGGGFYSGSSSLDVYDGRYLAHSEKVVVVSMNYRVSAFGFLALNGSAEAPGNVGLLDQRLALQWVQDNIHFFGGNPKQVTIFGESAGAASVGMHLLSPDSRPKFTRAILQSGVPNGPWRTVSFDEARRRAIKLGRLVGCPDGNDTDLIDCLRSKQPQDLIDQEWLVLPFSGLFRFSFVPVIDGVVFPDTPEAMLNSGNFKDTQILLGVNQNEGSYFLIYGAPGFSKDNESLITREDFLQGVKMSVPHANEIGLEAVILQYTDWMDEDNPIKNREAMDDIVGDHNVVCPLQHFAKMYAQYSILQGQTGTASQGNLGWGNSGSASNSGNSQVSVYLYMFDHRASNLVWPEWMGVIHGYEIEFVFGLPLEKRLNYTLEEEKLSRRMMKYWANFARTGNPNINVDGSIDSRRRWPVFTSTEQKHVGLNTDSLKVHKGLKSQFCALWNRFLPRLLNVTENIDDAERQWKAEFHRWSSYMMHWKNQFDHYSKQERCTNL

[22] = molecular target: T1, Carbonic anhydrase 2; assay: Inhibition of human carbonic anhydrase 2 using p-nitrophenylacetate as substrate after 3 mins
[23] = tested on: Rattus norvegicus; assay: In vivo inhibition of aromatase in Wistar rat at 10 mg/kg, po after 3 hrs relative to control; assay type: functional
[24] = tested on: Rattus norvegicus; assay: In vivo inhibition of steroid sulfatase in Wistar rat at 10 mg/kg, po after 3 hrs relative to control; assay type: functional
[25] = species on record: Rattus norvegicus; assay: animal or person; details: Wistar, 3 h
[26] = molecular target: T2, Steryl-sulfatase; assay: Inhibition of steroid sulfatase (unknown origin) expressed in CHO cells; assay type: cell-based
[27] = molecular target: T2, Steryl-sulfatase; assay: Inhibition of steroid sulfatase (unknown origin) expressed in human MCF7 cells; assay type: cell-based

- Ki [3]: 0.0176 to 0.0733 µM
- Ki [4]: 0.0287 to 0.0843 µM
Compound: NS(=O)(=O)Oc1ccc(NC2=NC(=O)/C(=C\c3ccc(F)cc3)S2)cc1

- Ki [3]: 0.0176 to 0.0733 µM
- Ki [4]: 0.0287 to 0.0843 µM
Compound: NS(=O)(=O)Oc1ccc(NC2=NC(=O)/C(=C\c3ccc(Cl)cc3)S2)cc1

- IC50 [10]: 0.03 µM
Compound: Cc1cc(=O)oc2cc(OS(N)(=O)=O)ccc12

- Ki [13]: 0.0761 µM
- Ki [3]: 0.0176 to 0.0733 µM
- Ki [4]: 0.0287 to 0.0843 µM
Compound: NS(=O)(=O)Oc1ccc(NC2=NC(=O)/C(=C\c3ccccc3)S2)cc1

- Ratio IC50 [14]: 3.38
- IC50 [3]: 0.101 µM
Compound: NS(=O)(=O)Oc1ccc(/C=C/C(=O)C[C@@H]2O[C@H](CO)[C@@H](O)[C@H](O)[C@H]2O)cc1

- Ki [3]: 0.0176 to 0.0733 µM
- Ki [4]: 0.0287 to 0.0843 µM
Compound: Cc1ccc(/C=C2/SC(Nc3ccc(OS(N)(=O)=O)cc3)=NC2=O)cc1

- Ki [3]: 0.0176 to 0.0733 µM
- Ki [4]: 0.0287 to 0.0843 µM
Compound: COc1ccc(/C=C2/SC(Nc3ccc(OS(N)(=O)=O)cc3)=NC2=O)cc1

- Ki [13]: 0.0423 µM
- Ki [3]: 0.0176 to 0.0733 µM
- Ki [4]: 0.0287 to 0.0843 µM
Compound: COc1cc(/C=C2/SC(Nc3ccc(OS(N)(=O)=O)cc3)=NC2=O)cc(OC)c1OC

- IC50 [17]: 0.0004 µM
Compound: CCCCCCC(O)(CCCCc1ccc(OS(N)(=O)=O)cc1)c1ccc(C(C)(C)C)cc1 (centres undefined)

- IC50 [12]: 2.13 µM
Compound: NS(=O)(=O)Oc1ccc2ccc(=O)oc2c1

- IC50 [10]: 0.001 µM
Compound: NS(=O)(=O)Oc1ccc2c3c(c(=O)oc2c1)CCCCCC3

- Ki [3]: 0.0176 to 0.0733 µM
- Ki [4]: 0.0287 to 0.0843 µM
Compound: NS(=O)(=O)Oc1ccc(NC2=NC(=O)/C(=C\c3ccc(C(F)(F)F)cc3)S2)cc1

- Ki [3]: 0.0176 to 0.0733 µM
- Ki [4]: 0.0287 to 0.0843 µM
Compound: NS(=O)(=O)Oc1ccc(NC2=NC(=O)/C(=C\c3cccc4ccccc34)S2)cc1

- IC50 [25]: 0.205 µM
Compound: N#Cc1ccc(N(Cc2ccc3c(Br)c(OS(N)(=O)=O)ccc3c2)n2cnnc2)cc1
- inhibition in vivo at 10 mg/kg [23]: 93%
- inhibition in vivo at 10 mg/kg [24]: 93%

- Ki [3]: 0.0176 to 0.0733 µM
- Ki [4]: 0.0287 to 0.0843 µM
Compound: NS(=O)(=O)Oc1ccc(NC2=NC(=O)/C(=C\c3ccc([N+](=O)[O-])cc3)S2)cc1

Further lines, the compound ahead of its results:

Compound: C[C@]12CC[C@@H]3c4ccc(OS(N)(=O)=O)cc4CC[C@H]3[C@@H]1CCC2=O [EMATE]
- Activity [1]: 10 - 15%
- Activity [2]: 30%

Compound: Cc1c(Cc2ccccc2)c(=O)oc2cc(OS(N)(=O)=O)ccc12
- IC50 [5]: 0.001 µM
- IC50 [6]: 0.008 µM

Compound: COc1cc2c(cc1OS(N)(=O)=O)CC[C@@H]1[C@@H]2CC[C@]2(C)[C@@H](OS(N)(=O)=O)CC[C@@H]12
- IC50 [7]: 0.29 µM
- IC50 [8]: 0.25 µM
- inhibition in vivo at 5 mg/kg [9]: 76%

Compound: COc1cc2c(cc1OS(N)(=O)=O)CC[C@@H]1[C@@H]2CC[C@]2(C)C(=O)CC[C@@H]12
- Activity [11]: 52%

Compound: NS(=O)(=O)Oc1ccc(CCNC(=O)C(F)(F)C(F)(F)C(F)(F)C(F)(F)C(F)(F)C(F)(F)C(F)(F)C(F)(F)C(F)(F)C(F)(F)F)cc1
- IC50 [12]: 2.18 µM

Compound: CCc1cc2c(cc1OS(N)(=O)=O)CC[C@@H]1[C@@H]2CC[C@]2(C)[C@@H](OS(N)(=O)=O)CC[C@@H]12
- IC50 [15]: 0.07 µM
- IC50 [16]: 0.08 µM

Compound: CCCCCCc1c(C)c2ccc(OS(N)(=O)=O)cc2oc1=O
- IC50 [5]: 0.00068 µM
- IC50 [6]: 0.032 µM

Compound: N#Cc1ccc(N(Cc2ccc(OS(N)(=O)=O)cc2)n2cnnc2)cc1
- inhibition in vivo at 10 mg/kg [18]: > 98%

Compound: CC(C)[C@@H]1CC[C@@H](C)C[C@H]1OS(=O)(=O)NC(c1ccccc1)c1ccccc1
- IC50 [19]: 0.044 µM
- IC50 [20]: 0.246 µM
- IC50 [21]: 0.206 µM
- IC50 [22]: 0.016 µM

Compound: NS(=O)(=O)Oc1ccc2nc(C=C3C4CC5CC(C4)CC3C5)oc2c1
- IC50 [26]: 0.00015 to 0.0318 µM
- IC50 [27]: 0.00015 to 0.0318 µM
